In US5036008A, “Antitumor antibiotic BU-3285T” (Bristol-Myers Company, priority 1990, dated 1991):
Converted amounts (≈) assume the structure as drawn. “Also recorded” adds a separate entry of the source.

What was measured:
[1] = tested on: Cryptococcus neoformans D49; assay: In vitro antifungal activity, serial agar dilution; conditions: D49, 40 h, pH 7
Experimental: (§4) In vitro antifungal activity was determined against various fungi by the serial agar dilution method. Sabouraud dextrose agar (pH 7.0) was used for the experiment. The inoculum size was adjusted to 10^6 CFU/ml. After incubation at 28° C. for 40 hours, the minimum inhibitory concentration (MIC) was examined.

Piricularia oryzae D91 = assay: microbe, parasite or virus in culture; type: cell-based; conditions: 40 h, pH 7
C. albicans A9540 = assay: In vitro antifungal activity, serial agar dilution; conditions: Candida albicans, A9540, 40 h, pH 7
Experimental: as §4

[2] = tested on: protein biosynthesis in L1210 leukemia cells; assay: Inhibition of macromolecule biosynthesis, protein (Table 7); type: cell-based, murine
Experimental: (§1) Inhibitory effects of BU-3285T on macromolecule biosynthesis (DNA, RNA and protein) were determined in cultured L1210 murine leukemia cells. The cells (5×10^5 cells/ml) were incubated with the compound at 37° C. for 15 minutes and then further incubated for 60 minutes after the addition of labelled precursor, ^3 H-thymidine, ^14 C-uridine or ^3 H-leucine into the cultured mixture. After washing with chilled 5% trichloroacetic acid solution, the radioactivity incorporated into the acid-insoluble fraction of the cells was determined by a liquid scintillation counter.

[3] = tested on: B16-F10 (murine melanoma) cells; assay: In vitro cytotoxicity (Table 14); type: cell-based; conditions: Mus musculus, B16-F10, 72 h
Experimental: (§5) B16-F10 (murine melanoma), HCT-116 (human colon carcinoma), A549 (human lung carcinoma) and A549/VP29 (an etoposide-resistant subline of A549) were grown in Eagle's MEM (Nissui) supplemented with FCS (fetal calf serum, 10%) and non-essential amino acids (B16-F10), or in McCoy's 5A medium (Gibco) with FCS (10%), essential and non-essential amino acids, vitamins and antibiotics (HCT-116 and both of A549) at 37° C. under a humidified atmosphere in a 5% CO2 incubator. Exponentially growing B16-F10, HCT-116 and A549 cells were harvested, counted and suspended in the culture medium at 1.5×10^4, 3×10^4 and 3×10^4 cells/ml, respectively. After planting 180 μl of cell suspension into wells of a 96-well microtiter plate on day 0, the test materials (20 μl) were added on day 1 and the plates were incubated for 72 hours. The cytotoxic activity was colorimetrically determined at 540 nm after staining viable cells with neutral red solution.

[4] = tested on: Sporothrix schenckii IF08158; assay: microbe, parasite or virus in culture; conditions: IF08158, 40 h, pH 7
Experimental: as §4

T. mentagrophytes #4329 = assay: In vitro antifungal activity, serial agar dilution; conditions: Trichophyton mentagrophytes, 40 h, pH 7
Experimental: as §4

[5] = tested on: DNA biosynthesis in L1210 leukemia cells; assay: Inhibition of macromolecule biosynthesis, DNA (Table 7); type: cell-based, murine
Experimental: as §1

[6] = tested on: HCT-116 (human colon carcinoma) cells; assay: In vitro cytotoxicity (Table 6); type: cell-based; conditions: HCT-116, 72 hrs, neutral red
Experimental: (§2) BU-3285T was tested for in vitro cytotoxicity against several murine and human tumor cell lines and for in vivo antitumor activity in mice. Mitomycin C was used as a reference compound in both in vitro and in vivo experiments. B16-F10 (murine melanoma) and Moser (human colorectal carcinoma) cells were grown to the logarithmic phase in an enriched Eagle minimum essential medium supplemented with fetal calf serum (FCS, 10%) and kanamycin (60 μg/ml); HCT-116 (human colon carcinoma) cells were in McCoy's 5A medium supplemented with FCS (10%), penicillin (100 U/ml) and streptomycin (100 μg/ml); and P388 (murine lymphocytic leukemia) cells and its vincristine-resistant subline (P388/VCR) were in RPMI 1640 medium supplemented with FCS (10%), penicillin (100 U/ml) and streptomycin (100 μg/ml).
(§3) B16-F10, Moser, HCT-116 and P388 cells were harvested and implanted into wells of a 96-well (for B16-F10, Moser and HCT-116 cells) or a 24-well (for P388 cells) tissue culture plate with test materials at the inoculum sizes of 3×10^4, 6 ×10^4, 6×10^4 and 2×10^4 cells/ml, respectively. They were incubated at 37° C. in a humidified atmosphere of 5% CO2 and 95% air for 72 hrs. […] For P388 cells, the number of viable cells was determined by a Coulter counter.

[7] = tested on: P388 (murine lymphocytic leukemia) cells; assay: In vitro cytotoxicity (Table 6); type: cell-based; conditions: Mus musculus; P388, 72 hrs, Coulter counter
Experimental: as §2, §3

[8] = tested on: B16-F10 (murine melanoma) cells; assay: In vitro cytotoxicity (Table 6); type: cell-based; conditions: Mus musculus; B16-F10, 72 hrs, neutral red
Experimental: as §2, §3

[9] = tested on: Aspergillus fumigatus IAM2530; assay: In vitro antifungal activity, serial agar dilution; conditions: IAM2530, 40 h, pH 7
Experimental: as §4

P388 leukemia = assay: In vivo antitumor activity against P388 leukemia (Table 8); conditions: for Body wt. change on day 4 / MST (median survival time) / T/C: Q1D × 3
[10] = tested on: DNA biosynthesis in L1210 leukemia cells; assay: Inhibition of macromolecule biosynthesis, DNA (Table 15); type: cell-based, murine; conditions: at 100 μg/ml, the highest concentration tested
Experimental: Inhibitory effects of the above compounds on macromolecule (DNA, RNA and protein) biosynthesis were determined in cultured L1210 murine leukemia cells. The cells (5×10^5 cells/ml) were incubated with the test materials at 37° C. for 15 minutes and then further incubated for 60 minutes after the addition of labeled precursor, ^3 H-thymidine, ^14 C-uridine or ^3 H-leucine into the cultured mixture. After washing with chilled 5% trichloroacetic acid solution, the radioactivity incorporated into the acid-insoluble fraction of the cells was determined with a liquid scintillation counter.

L1210 leukemia = assay: In vivo antitumor activity against L1210 leukemia (Table 9); conditions: for Body wt. change on day 6 / MST (median survival time) / T/C: Q1D × 3
[11] = tested on: A549 (human lung carcinoma) cells; assay: In vitro cytotoxicity (Table 14); type: cell-based; conditions: A549, 72 h
Experimental: as §5

A. flavus FA21436 = assay: In vitro antifungal activity, serial agar dilution; conditions: Aspergillus flavus, FA21436, 40 h, pH 7
Experimental: as §4

[12] = tested on: Fusarium moniliforme A2284; assay: In vitro antifungal activity, serial agar dilution; conditions: Fusarium verticillioides, A2284, 40 h, pH 7
Experimental: as §4

[13] = 0.1 mg/kg/day ip, significant if T/C ≥ 125%
[14] = 0.3 mg/kg/day ip, *2 significant, T/C ≥ 125%
[15] = 1 mg/kg/day ip, *2 significant, T/C ≥ 125%
[16] = 3 mg/kg/day ip, *2 significant, T/C ≥ 125%
[17] = 10 mg/kg/day ip, *2 significant, T/C ≥ 125%

`CCCCC/C=C/C=C\C=C/C(O)C(C)C(C/C=C/C1OC(=O)C=CC1O)OS(=O)(=O)O` (centres unmarked) [BU-3285T] was tested, and the MIC [1] was 1.6 µg/mL (≈ 3.4 µM), the MIC (Piricularia oryzae D91) was 50 µg/mL (≈ 106 µM) and the MIC (C. albicans A9540) was 25 µg/mL (≈ 53.1 µM). For the same compound, the “inhibition of protein synthesis (specificity)” value ([2]; L-1210 leukemia cells) was “specific inhibitor of protein synthesis”, the IC50 ([2]; Mus musculus, L1210, labelled precursor, 15 min + 60 min, 37° C., read-out: IC50, protein synthesis) was 0.78 µg/mL and the “inhibition of protein synthesis stronger than RNA synthesis” value ([2]; protein vs RNA synthesis, L1210 cells) was 18 times. The IC50 [3] was 38 µg/mL (≈ 80.8 µM), the MIC [4] was 100 µg/mL (≈ 213 µM) and the MIC (T. mentagrophytes #4329) was 12.5 µg/mL (≈ 26.6 µM). The IC50 ([5]; Mus musculus, L1210, 3H-thymidine, ^14 C-uridine or 3H-leucine precursor, 15 min + 60 min, 37° C., read-out: IC50, DNA synthesis) was greater than 100 µg/mL, the “inhibitory effect on DNA synthesis” value ([5]; at 100 μg/ml, the highest concentration tested) was “no significant inhibitory effect” and the IC50 [6] was 3.4 µg/mL (≈ 7.23 µM). For the same compound, the IC50 [7] was 3.8 µg/mL (≈ 8.08 µM), the IC50 [8] was 13.3 µg/mL (≈ 28.3 µM) and the MIC [9] was 25 µg/mL (≈ 53.1 µM). The “Body wt. change on day 4” value (P388 leukemia; 0.1 mg/kg/day ip) was “+1.5 g”, the “MST (median survival time)” value (P388 leukemia; 0.1 mg/kg/day ip) was 12.0 days and the T/C (P388 leukemia; [13]) was 120%. The “Body wt. change on day 4” value (P388 leukemia; 0.3 mg/kg/day ip) was “+1.0 g”, the “MST (median survival time)” value (P388 leukemia; 0.3 mg/kg/day ip) was 13.0 days and the T/C (P388 leukemia; [14]) was 130%. For the same compound, the “Body wt. change on day 4” value (P388 leukemia; 1 mg/kg/day ip) was “+1.0 g”, the “MST (median survival time)” value (P388 leukemia; 1 mg/kg/day ip) was 14.0 days and the T/C (P388 leukemia; [15]) was 140%. For the same compound, the “Body wt. change on day 4” value (P388 leukemia; 3 mg/kg/day ip) was “+1.5 g”, the “MST (median survival time)” value (P388 leukemia; 3 mg/kg/day ip) was 15.0 days and the T/C (P388 leukemia; [16]) was 150%. For the same compound, the “Body wt. change on day 4” value (P388 leukemia; 10 mg/kg/day ip) was 0.0 g, the “MST (median survival time)” value (P388 leukemia; 10 mg/kg/day ip) was 16.0 days and the T/C (P388 leukemia; [17]) was 160%. For the same compound, the “activity compared with mitomycin C” value (P388 leukemia; P388, in terms of minimum effective dose) was “comparable”, the “in vivo antitumor activity” value (P388 leukemia; P388 leukemia in mice) was “potent in vivo inhibitory activity; also recorded: good antitumor activity” and the “inhibitory effect on DNA synthesis” value [10] was “no significant inhibitory effect”. The “Body wt. change on day 6” value (L1210 leukemia; 0.1 mg/kg/day ip) was “+2.3 g”, the “MST (median survival time)” value (L1210 leukemia; 0.1 mg/kg/day ip) was 8.0 days and the T/C (L1210 leukemia; [13]) was 114%. For the same compound, the “Body wt. change on day 6” value (L1210 leukemia; 0.3 mg/kg/day ip) was “+2.5 g”, the “MST (median survival time)” value (L1210 leukemia; 0.3 mg/kg/day ip) was 8.0 days and the T/C (L1210 leukemia; [14]) was 114%. The “Body wt. change on day 6” value (L1210 leukemia; 1 mg/kg/day ip) was “+1.5 g”, the “MST (median survival time)” value (L1210 leukemia; 1 mg/kg/day ip) was 9.0 days and the T/C (L1210 leukemia; [15]) was 129%. For the same compound, the “Body wt. change on day 6” value (L1210 leukemia; 3 mg/kg/day ip) was “+1.5 g”, the “MST (median survival time)” value (L1210 leukemia; 3 mg/kg/day ip) was 9.0 days and the T/C (L1210 leukemia; [16]) was 129%. For the same compound, the “Body wt. change on day 6” value (L1210 leukemia; 10 mg/kg/day ip) was 0.0 g, the “MST (median survival time)” value (L1210 leukemia; 10 mg/kg/day ip) was 10.5 days and the T/C (L1210 leukemia; [17]) was 150%. For the same compound, the “activity compared with mitomycin C” value (L1210 leukemia; L1210, in terms of minimum effective dose) was “somewhat weaker”, the “in vivo antitumor activity” value (L1210 leukemia; L1210 leukemia in mice) was “potent in vivo inhibitory activity; also recorded: good antitumor activity” and the IC50 [11] was 4.1 µg/mL (≈ 8.71 µM). For the same compound, the MIC (A. flavus FA21436) was 50 µg/mL (≈ 106 µM) and the MIC [12] was 25 µg/mL (≈ 53.1 µM).
